Results from ChEMBL document CHEMBL1201862, “PubChem BioAssay data set” (2004).
The source made the active and inactive calls.

Tests used:
cells [1] = format: functional, cell-based
[2] = biological target: T1, Carboxy-terminal domain RNA polymerase II polypeptide A small phosphatase 1 (Homo sapiens, UniProt Q9GZU7); experiment: inhibitors of CTDSP1, concentration-response testing, biochemical assay, absorbance-based, actives from ultra-high-throughput screening (AID 540297); format: functional
T1 sequence (Q9GZU7 whole entry): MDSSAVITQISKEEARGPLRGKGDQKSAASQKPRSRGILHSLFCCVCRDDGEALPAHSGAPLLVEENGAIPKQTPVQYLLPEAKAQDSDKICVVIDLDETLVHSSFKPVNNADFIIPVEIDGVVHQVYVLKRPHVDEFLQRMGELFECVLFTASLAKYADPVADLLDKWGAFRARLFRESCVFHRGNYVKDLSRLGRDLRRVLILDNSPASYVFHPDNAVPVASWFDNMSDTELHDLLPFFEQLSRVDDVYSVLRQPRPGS

cells [3] = format: functional, cell-based; remark: listed apart in the source
[4] = biological target: T2, Beta-adrenergic receptor kinase 1 (Homo sapiens, UniProt P25098); experiment: aptamer displacement from bead-bound GRK2 – biochemical, cherry pick 1, bead flow cytometry, dose response (AID 504500)
T2 sequence (P25098 whole entry): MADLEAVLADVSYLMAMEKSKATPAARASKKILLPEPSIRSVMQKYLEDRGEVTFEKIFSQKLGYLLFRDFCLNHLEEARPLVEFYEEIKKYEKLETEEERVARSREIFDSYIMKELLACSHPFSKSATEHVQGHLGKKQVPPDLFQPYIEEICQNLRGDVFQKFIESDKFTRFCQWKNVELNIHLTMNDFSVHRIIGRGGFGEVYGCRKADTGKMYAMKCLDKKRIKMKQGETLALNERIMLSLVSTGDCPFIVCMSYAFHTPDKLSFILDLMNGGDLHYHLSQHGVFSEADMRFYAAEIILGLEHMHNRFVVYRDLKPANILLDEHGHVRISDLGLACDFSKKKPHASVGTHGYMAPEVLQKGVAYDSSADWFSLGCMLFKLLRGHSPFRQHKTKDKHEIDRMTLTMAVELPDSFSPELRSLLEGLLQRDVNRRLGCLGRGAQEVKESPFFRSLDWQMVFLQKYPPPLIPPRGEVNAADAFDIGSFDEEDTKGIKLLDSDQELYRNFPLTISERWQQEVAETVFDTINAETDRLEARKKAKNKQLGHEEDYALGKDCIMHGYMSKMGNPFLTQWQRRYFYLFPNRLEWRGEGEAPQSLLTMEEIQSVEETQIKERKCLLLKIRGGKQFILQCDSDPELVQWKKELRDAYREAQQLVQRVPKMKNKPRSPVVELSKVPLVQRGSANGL

[5] = biological target: T2, Beta-adrenergic receptor kinase 1; experiment: GRK2 inhibitors displacing RNA aptamer, dose response, biochemical, flow cytometry beads, FAM-aptamer, powder set 1 (AID 588720)
[6] = biological target: Cyclin-dependent kinase 2 (Homo sapiens, UniProt P24941); experiment: CDK2 kinase inhibitors, off-target check, dose response, selectivity assay for Dyrk1A inhibitor project, biochemical, cherry-picked samples (AID 602127)
[7] = biological target: Dual specificity protein kinase CLK1 (Homo sapiens, UniProt P49759); experiment: CLK1 kinase inhibitors, off-target check, dose response, selectivity assay for Dyrk1A inhibitor project, biochemical, cherry-picked samples (AID 588811)
Vero [8] = experiment: cells; format: functional; settings: Chlorocebus sabaeus
Vero [9] = experiment: cells; format: functional, cell-based; settings: Chlorocebus sabaeus
[10] = biological target: T3, Short transient receptor potential channel 4 (Mus musculus, UniProt Q9QUQ5); experiment: mouse TRPC4 channel activators, dose response, cell-based, HEK293 TRPC4/mu-opioid, Fluo-4 calcium (AID 434937); format: functional
T3 sequence (Q9QUQ5 whole entry): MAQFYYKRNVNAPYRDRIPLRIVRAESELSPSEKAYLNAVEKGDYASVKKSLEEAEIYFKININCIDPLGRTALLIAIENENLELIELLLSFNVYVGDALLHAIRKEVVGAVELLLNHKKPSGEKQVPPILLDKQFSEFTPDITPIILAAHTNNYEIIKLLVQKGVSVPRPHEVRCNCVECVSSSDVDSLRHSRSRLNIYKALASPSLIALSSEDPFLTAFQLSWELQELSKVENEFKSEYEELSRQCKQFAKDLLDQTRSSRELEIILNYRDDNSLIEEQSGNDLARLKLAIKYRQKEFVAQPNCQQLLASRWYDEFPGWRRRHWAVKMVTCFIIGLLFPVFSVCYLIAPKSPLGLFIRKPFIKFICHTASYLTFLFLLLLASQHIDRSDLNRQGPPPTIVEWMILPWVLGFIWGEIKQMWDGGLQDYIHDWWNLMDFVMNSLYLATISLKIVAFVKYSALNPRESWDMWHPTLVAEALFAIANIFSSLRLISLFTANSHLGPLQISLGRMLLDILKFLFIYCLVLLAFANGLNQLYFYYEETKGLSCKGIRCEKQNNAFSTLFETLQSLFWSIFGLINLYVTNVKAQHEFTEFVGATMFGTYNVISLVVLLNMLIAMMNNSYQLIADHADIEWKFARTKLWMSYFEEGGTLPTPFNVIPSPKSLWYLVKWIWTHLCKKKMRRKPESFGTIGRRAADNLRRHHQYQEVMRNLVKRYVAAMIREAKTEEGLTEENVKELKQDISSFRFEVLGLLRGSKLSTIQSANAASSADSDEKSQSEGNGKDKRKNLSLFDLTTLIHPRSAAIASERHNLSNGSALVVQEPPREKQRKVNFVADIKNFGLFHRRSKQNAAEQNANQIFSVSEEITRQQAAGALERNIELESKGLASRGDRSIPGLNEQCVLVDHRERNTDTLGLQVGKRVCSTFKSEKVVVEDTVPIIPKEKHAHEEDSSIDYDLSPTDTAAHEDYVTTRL

[11] = biological target: 5-hydroxytryptamine receptor 5A (Homo sapiens, UniProt P47898); experiment: Counterscreen for agonists of OPRM1-OPRD1 heterodimerization: luminescence-based cell-based high throughput dose response assay to identify agonists of 5-hydroxytryptamine (serotonin) 5A receptor (HTR5A). [Related pubchem assays (depositor defined):AID504326, AID504355, AID504692, AID504904, AID504905]; format: functional
[12] = biological target: Delta-type opioid receptor (Homo sapiens, UniProt P41143); experiment: Counterscreen for agonists of heterodimerization of the mu 1 (OPRM1) and delta 1 (OPRD1) opioid receptors: Luminescence-based cell-based high throughput dose response assay to identify agonists of OPRD1 homodimerization. [Related pubchem assays (depositor defined):AID504326, AID504355, AID504692, AID504904, AID504905]; format: functional
Mu-type opioid receptor = Mu-type opioid receptor (Homo sapiens, UniProt P35372); experiment: Counterscreen for agonists of heterodimerization of the mu 1 (OPRM1) and delta 1 (OPRD1) opioid receptors: Luminescence-based cell-based high throughput dose response assay to identify agonists of OPRM1 homodimerization.; format: functional;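 note: U2OS cells expressing OPRM1 and beta-arrestin as split beta-galactosidase partners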
Cytochrome P450 2C9 = Cytochrome P450 2C9 (Homo sapiens, UniProt P11712)
[13] = biological target: Voltage-gated inwardly rectifying potassium channel KCNH2 (Homo sapiens, UniProt Q12809); settings: Potency;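 note: confirmatory quantitative high-throughput screen measuring inhibition of hERG channel activity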
Chain of Voltage-gated inwardly rectifying potassium channel KCNH2 (Q12809 whole entry): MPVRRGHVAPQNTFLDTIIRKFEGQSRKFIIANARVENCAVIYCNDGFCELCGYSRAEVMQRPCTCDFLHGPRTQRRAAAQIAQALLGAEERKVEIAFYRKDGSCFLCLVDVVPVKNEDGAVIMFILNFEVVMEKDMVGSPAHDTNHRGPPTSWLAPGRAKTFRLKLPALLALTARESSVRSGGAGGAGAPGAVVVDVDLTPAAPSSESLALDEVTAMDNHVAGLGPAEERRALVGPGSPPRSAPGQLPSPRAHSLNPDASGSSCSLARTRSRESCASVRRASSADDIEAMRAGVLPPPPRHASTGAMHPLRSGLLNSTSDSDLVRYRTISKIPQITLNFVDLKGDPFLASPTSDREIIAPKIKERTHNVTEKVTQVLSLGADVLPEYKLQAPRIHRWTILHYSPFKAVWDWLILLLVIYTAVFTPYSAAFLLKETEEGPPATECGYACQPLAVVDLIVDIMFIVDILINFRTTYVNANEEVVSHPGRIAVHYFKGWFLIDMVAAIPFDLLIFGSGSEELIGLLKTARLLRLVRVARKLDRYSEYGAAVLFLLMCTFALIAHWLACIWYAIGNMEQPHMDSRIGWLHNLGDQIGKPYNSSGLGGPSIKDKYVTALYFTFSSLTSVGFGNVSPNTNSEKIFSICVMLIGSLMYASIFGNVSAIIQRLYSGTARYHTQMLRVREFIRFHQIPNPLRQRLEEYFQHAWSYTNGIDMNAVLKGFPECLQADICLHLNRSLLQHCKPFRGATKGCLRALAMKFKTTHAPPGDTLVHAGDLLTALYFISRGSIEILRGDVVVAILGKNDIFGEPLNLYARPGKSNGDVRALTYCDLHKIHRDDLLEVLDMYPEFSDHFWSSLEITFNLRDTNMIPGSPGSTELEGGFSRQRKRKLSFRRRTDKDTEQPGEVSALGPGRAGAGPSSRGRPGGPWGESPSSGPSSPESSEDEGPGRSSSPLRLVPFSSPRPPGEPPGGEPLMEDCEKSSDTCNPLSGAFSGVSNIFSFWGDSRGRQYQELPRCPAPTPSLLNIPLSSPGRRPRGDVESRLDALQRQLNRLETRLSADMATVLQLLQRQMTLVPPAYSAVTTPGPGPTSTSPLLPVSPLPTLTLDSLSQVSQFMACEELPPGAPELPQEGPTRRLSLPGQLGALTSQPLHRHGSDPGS

Chain of 5-hydroxytryptamine receptor 5A (P47898 whole entry): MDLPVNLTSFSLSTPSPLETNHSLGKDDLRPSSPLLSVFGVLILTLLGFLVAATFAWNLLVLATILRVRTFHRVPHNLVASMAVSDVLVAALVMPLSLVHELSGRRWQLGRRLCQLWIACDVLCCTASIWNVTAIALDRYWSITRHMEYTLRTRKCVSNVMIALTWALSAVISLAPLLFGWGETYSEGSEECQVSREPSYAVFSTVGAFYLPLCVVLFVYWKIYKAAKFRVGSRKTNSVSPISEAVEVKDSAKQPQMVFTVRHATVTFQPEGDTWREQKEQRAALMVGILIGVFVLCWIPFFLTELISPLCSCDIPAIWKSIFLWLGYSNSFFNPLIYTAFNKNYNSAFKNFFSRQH
Chain of Mu-type opioid receptor (P35372 whole entry): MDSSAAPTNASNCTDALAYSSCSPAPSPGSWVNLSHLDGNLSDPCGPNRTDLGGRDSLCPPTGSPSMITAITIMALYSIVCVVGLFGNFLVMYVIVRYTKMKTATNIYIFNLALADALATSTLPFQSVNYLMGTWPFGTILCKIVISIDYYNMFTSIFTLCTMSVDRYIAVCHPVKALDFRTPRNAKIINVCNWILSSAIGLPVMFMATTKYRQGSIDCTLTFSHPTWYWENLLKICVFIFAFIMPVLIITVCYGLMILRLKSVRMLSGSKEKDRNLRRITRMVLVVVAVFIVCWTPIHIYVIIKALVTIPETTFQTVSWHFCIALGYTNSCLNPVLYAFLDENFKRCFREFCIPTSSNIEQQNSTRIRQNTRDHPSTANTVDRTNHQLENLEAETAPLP
Chain of Cytochrome P450 2C9 (P11712 whole entry): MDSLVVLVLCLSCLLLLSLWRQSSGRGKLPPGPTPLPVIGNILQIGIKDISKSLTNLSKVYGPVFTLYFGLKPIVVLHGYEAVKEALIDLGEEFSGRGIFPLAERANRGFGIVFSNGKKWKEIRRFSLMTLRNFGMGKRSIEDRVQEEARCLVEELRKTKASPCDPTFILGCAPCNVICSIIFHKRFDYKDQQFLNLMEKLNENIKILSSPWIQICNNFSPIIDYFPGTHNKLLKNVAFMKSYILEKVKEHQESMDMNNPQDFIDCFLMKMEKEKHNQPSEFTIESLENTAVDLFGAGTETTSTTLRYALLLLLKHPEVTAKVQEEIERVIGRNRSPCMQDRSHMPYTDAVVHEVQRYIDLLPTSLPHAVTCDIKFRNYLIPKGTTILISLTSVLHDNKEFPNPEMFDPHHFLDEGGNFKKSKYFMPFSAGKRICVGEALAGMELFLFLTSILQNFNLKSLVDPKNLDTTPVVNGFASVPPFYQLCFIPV
Chain of Delta-type opioid receptor (P41143 whole entry): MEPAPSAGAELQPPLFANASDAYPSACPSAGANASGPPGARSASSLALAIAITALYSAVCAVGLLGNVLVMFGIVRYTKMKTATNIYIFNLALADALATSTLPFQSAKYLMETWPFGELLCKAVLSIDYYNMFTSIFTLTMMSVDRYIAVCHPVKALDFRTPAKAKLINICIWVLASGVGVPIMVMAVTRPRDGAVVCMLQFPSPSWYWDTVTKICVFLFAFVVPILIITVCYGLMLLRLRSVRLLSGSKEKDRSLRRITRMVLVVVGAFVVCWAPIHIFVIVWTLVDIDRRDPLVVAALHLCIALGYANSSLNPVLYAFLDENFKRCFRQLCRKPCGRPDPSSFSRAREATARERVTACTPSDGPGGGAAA
Chain of Dual specificity protein kinase CLK1 (P49759 whole entry): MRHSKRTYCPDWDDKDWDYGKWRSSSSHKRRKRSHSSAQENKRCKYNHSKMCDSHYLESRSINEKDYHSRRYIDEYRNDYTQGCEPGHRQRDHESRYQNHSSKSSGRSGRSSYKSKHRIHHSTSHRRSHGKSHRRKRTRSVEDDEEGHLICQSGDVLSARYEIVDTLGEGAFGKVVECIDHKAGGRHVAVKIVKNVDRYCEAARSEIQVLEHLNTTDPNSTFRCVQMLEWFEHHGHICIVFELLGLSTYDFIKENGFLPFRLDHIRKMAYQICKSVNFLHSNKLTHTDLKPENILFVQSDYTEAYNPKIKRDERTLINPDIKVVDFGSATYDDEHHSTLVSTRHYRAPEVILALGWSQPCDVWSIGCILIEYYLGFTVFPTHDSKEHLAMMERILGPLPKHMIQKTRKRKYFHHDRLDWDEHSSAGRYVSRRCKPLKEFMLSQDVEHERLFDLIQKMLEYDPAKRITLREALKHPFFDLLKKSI

O=C(CSc1nc2ccccc2c(=O)n1-c1ccccc1)NC(=O)CN1CCCC1=O
EC50 (cells [1]): > 350 µM (not active) | IC50 [2]: 8.75 µM (active) | EC50 (cells [3]): > 350 µM (not active) | EC50 [4]: 9.42 µM (active) | EC50 [5]: 2.96 µM (active)

Cc1ccsc1CN(C)c1ncnc2ccc(-c3ccoc3)cc12
AC50 [6]: 7.77 µM (active) | AC50 [7]: 0.0138 µM (active)

COc1ccc(S(=O)(=O)N2CCOC23CCN(C(=O)c2ccc(Cl)cc2Cl)CC3)cc1
CC50 (Vero [8]): > 25 µM (active) | IC50 (Vero [9]): > 25 µM (active)

COc1ccc(C(CNC(=O)CCc2ccsc2)N(C)C)cc1 (stereo not given)
EC50 [10]: 0.0147 µM (active) | EC50 [11]: > 92.4 µM (inactive) | EC50 [12]: 25.6 µM (inactive) | EC50 (Mu-type opioid receptor): 1.42 µM (active)

CC(C)COC(=O)OCN1C(=O)CN(CCN2CC(=O)N(COC(=O)OCC(C)C)C(=O)C2)CC1=O [SOBUZOXANE]
AC50 (Cytochrome P450 2C9): 39.8 µM (inconclusive) | AC50 [13]: 35.5 µM (inconclusive)
